Measured values reported in patent US20260265233A1, “BENZOTHIOPHENE DERIVATIVES AS RXFP1 AGONISTS” (BRISTOL-MYERS SQUIBB COMPANY, priority 2021, published 2026).

These compounds were tested against T1, human RXFP1 (Homo sapiens, UniProt Q9HBX9) (assay: hRXFP1 HEK293 cAMP assay (HTRF)). Settings: HEK293 cells stably expressing human RXFP1; 30 min at rt; intracellular cAMP by HTRF.
T1 construct: expressed in transfected cells
T1 sequence (Q9HBX9 1-757): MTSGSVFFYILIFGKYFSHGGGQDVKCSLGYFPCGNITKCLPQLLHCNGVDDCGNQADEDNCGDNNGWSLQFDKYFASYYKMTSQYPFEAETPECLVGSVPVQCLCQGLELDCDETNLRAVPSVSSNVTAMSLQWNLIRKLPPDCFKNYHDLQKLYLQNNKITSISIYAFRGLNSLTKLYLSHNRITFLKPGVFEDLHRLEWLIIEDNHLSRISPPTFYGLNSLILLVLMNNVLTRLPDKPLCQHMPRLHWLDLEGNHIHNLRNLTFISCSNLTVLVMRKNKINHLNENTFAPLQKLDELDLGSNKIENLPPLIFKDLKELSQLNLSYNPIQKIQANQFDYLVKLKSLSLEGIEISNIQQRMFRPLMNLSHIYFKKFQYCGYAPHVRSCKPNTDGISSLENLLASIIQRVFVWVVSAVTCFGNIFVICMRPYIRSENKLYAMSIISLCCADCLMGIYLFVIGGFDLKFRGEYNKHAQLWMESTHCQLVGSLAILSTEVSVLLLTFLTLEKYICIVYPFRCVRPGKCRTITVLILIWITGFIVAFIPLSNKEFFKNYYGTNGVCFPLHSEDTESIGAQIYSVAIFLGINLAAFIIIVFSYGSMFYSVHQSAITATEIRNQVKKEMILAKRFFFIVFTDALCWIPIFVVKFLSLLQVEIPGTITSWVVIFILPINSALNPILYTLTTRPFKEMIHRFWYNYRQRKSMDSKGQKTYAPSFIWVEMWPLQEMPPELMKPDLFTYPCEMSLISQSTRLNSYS
Type: cell-based
How it was run: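 Agonism is measured as cAMP by HTRF, quantified from a standard curve via the 665/590 nm ratio and fitted with a four-parameter logistic equation. Compounds (0.010 nM to 50 μM final, 2% DMSO) were applied for 30 min at rt to human RXFP1-expressing HEK293 cells in assay buffer containing 0.5 mM IBMX.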

EC50 [nM]	Compound
1650	COc1ccc(C2CCN(C(=O)C(F)F)C2)cc1C(=O)Nc1c(C(=O)Nc2ccc(F)c(C(F)(F)F)c2)sc2cc(C(F)(F)F)ccc12 (stereo not shown) [Example 145, 3-(5-(1-(2,2-difluoroacetyl)pyrrolidin-3-yl)-2-methoxy-benzamido)-N-(4-fluoro-3-(trifluoromethyl)phenyl)-6-(trifluoromethyl) benzo[b] thiophene-2-carboxamide]
902	COc1ccc(C2CCN(CC(N)=O)C2)cc1C(=O)Nc1c(C(=O)Nc2ccc(F)c(C(F)(F)F)c2)sc2cc(C(F)(F)F)ccc12 (stereo not shown) [Example 155, 3-{5-[1-(carbamoyl-methyl)pyrrolidin-3-yl]-2-methoxy-benzamido}-N-[4-fluoro-3-(trifluoromethyl)phenyl]-6-(trifluoromethyl)-1-benzothiophene-2-carboxamide]
306	COc1ccc(C2=NOC3CN(CC(C)(C)O)CC23)cc1C(=O)Nc1c(C(=O)Nc2ccc(F)c(C(F)(F)F)c2)sc2cc(C(F)(F)F)ccc12 (single isomer, unassigned) [Example 54, N-(4-fluoro-3-(trifluoromethyl)phenyl)-3-(5-(5-(2-hydroxy-2-methylpropyl)-3a, 5,6,6a-tetrahydro-4H-pyrrolo[3,4-d]isoxazol-3-yl)-2-methoxybenzamido)-6-(trifluoromethyl)benzo[b]thiophene-2-carboxamide]
1540	COCCC(=O)N1CCC(c2ccc(OC)c(C(=O)Nc3c(C(=O)Nc4ccc(F)c(C(F)(F)F)c4)sc4cc(C(F)(F)F)ccc34)c2)C1 (stereo not shown) [Example 143, N-(4-fluoro-3-(trifluoromethyl)phenyl)-3-(2-methoxy-5-(1-(3-methoxypropanoyl)pyrrolidin-3-yl)benzamido)-6-(trifluoromethyl) benzo[b] thiophene-2-carboxamide]
662	COc1ccc(C2CC2C(=O)N2CC(OC)C2)cc1C(=O)Nc1c(C(=O)Nc2ccc(F)c(C(F)(F)F)c2)sc2cc(C(F)(F)F)ccc12 (stereo not shown) [Example 163, N-[4-fluoro-3-(trifluoromethyl)phenyl]-3-{2-methoxy-5-[2-(3-methoxyazetidine-1-carbonyl)cyclopropyl]benzamido}-6-(trifluoromethyl)-1-benzothiophene-2-carboxamide]
1040	COc1ccc(C2CC2C(=O)NC2CCOCC2)cc1C(=O)Nc1c(C(=O)Nc2ccc(F)c(C(F)(F)F)c2)sc2cc(C(F)(F)F)ccc12 (single isomer, unassigned) [Example 157, N-[4-fluoro-3-(trifluoromethyl)phenyl]-3-(2-methoxy-5-{2-[(oxan-4-yl)carbamoyl]cyclopropyl}benzamido)-6-(trifluoromethyl)-1-benzothiophene-2-carboxamide]
149	COc1ccc(C2CCCN(C(=O)C(C)(C)CO)C2)cc1C(=O)Nc1c(C(=O)Nc2ccc(F)c(C(F)(F)F)c2)sc2cc(C(F)(F)F)ccc12 (single isomer, unassigned) [Example 105, N-[4-fluoro-3-(trifluoromethyl)phenyl]-3-{5-[1-(3-hydroxy-2,2-dimethyl-propanoyl)piperidin-3-yl]-2-methoxy-benzamido}-6-(trifluoromethyl)-1-benzothiophene-2-carboxamide]
9.1	COc1ncc(C(=O)NCC2(S(C)(=O)=O)CC2)cc1C(=O)Nc1c(C(=O)Nc2ccc(F)c(C(F)(F)F)c2)sc2cc(C(F)(F)F)ccc12 [Example 171, N3-(2-((4-fluoro-3-(trifluoromethyl)phenyl)carbamoyl)-6-(trifluoromethyl)benzo[b]thiophen-3-yl)-2-methoxy-N5-((1-(methylsulfonyl)cyclopropyl)methyl) pyridine-3,5-dicarboxamide]
746	COc1ccc(N2CCC3(CN(CCS(C)(=O)=O)C3)C2)cc1C(=O)Nc1c(C(=O)Nc2ccc(F)c(C(F)(F)F)c2)sc2cc(C(F)(F)F)ccc12 [Example 194, N-(4-fluoro-3-(trifluoromethyl)phenyl)-3-(2-methoxy-5-(2-(2-(methylsulfonyl)ethyl)-2,6-diazaspiro[3.4]octan-6-yl)benzamido)-6-(trifluoromethyl) benzo[b] thiophene-2-carboxamide]
910	COc1ccc(C(=O)N2CC[C@@H](O)C2)cc1C(=O)Nc1c(C(=O)Nc2ccc(F)c(C(F)(F)F)c2)sc2cc(C3CC3)ncc12 [Example 195, (R)-6-cyclopropyl-N-(4-fluoro-3-(trifluoromethyl)phenyl)-3-(5-(3-hydroxy-pyrrolidine-1-carbonyl)-2-methoxy-benzamido) thieno[3,2-c] pyridine-2-carboxamide]
166	COc1ccc(C2=NOC3CS(=O)(=O)CC23)cc1C(=O)Nc1c(C(=O)Nc2ccc(F)c(C(F)(F)F)c2)sc2cc(C(F)(F)F)ccc12 (stereo not shown) [Example 52, 3-(5-(5,5-dioxido-3a, 4,6,6a-tetrahydrothieno[3,4-d]isoxazol-3-yl)-2-methoxybenzamido)-N-(4-fluoro-3-(trifluoromethyl)phenyl)-6-(trifluoromethyl)benzo[b]thiophene-2-carboxamide]
582	COc1ccc(C2=NOC3(CCN(C(=O)C(C)(C)O)C3)C2)cc1C(=O)Nc1c(C(=O)Nc2ccc(F)c(C(F)(F)F)c2)sc2cc(C(F)(F)F)ccc12 (stereo not shown) [Example 279, N-[4-fluoro-3-(trifluoromethyl)phenyl]-3-{5-[7-(2-hydroxy-2-methylpropanoyl)-1-oxa-2,7-diazaspiro[4.4]non-2-en-3-yl]-2-methoxy-benzamido}-6-(trifluoromethyl)-1-benzothiophene-2-carboxamide]
2010	COc1ccc(C2CCCN(CCS(C)(=O)=O)C2)cc1C(=O)Nc1c(C(=O)Nc2ccc(F)c(C(F)(F)F)c2)sc2cc(C(F)(F)F)ccc12 (stereo not shown) [Example 100, N-(4-fluoro-3-(trifluoromethyl)phenyl)-3-(2-methoxy-5-(1-(2-(methylsulfonyl)ethyl)piperidin-3-yl)benzamido)-6-(trifluoromethyl) benzo[b] thiophene-2-carboxamide]
95.1	COc1ccc(C2=NC(C(=O)N3CC(C(C)(C)O)C3)CO2)cc1C(=O)Nc1c(C(=O)Nc2ccc(F)c(C(F)(F)F)c2)sc2cc(C(F)(F)F)ccc12 (stereo not shown) [Example 281, N-[4-fluoro-3-(trifluoromethyl)phenyl]-3-(5-{4-[3-(2-hydroxypropan-2-yl)azetidine-1-carbonyl]-4,5-dihydro-1,3-oxazol-2-yl}-2-methoxy-benzamido)-6-(trifluoromethyl)-1-benzothiophene-2-carboxamide]
450	COc1ccc(C(=O)NCCS(C)(=O)=O)cc1C(=O)Nc1c(C(=O)Nc2ccc(F)c(C(F)(F)F)c2)sc2cc(Cl)ncc12 [Example 197, N3-(6-chloro-2-((4-fluoro-3-(trifluoromethyl)phenyl)carbamoyl)thieno[3,2-c]pyridin-3-yl)-4-methoxy-N1-(2-(methylsulfonyl)ethyl) isophthalamide]
1100	COc1ccc(C2CC2C(=O)NCC(C)(C)O)cc1C(=O)Nc1c(C(=O)Nc2ccc(F)c(C(F)(F)F)c2)sc2cc(C(F)(F)F)ccc12 (stereo not shown) [Example 170, N-[4-fluoro-3-(trifluoromethyl)phenyl]-3-(5-{2-[(2-hydroxy-2-methylpropyl)carbamoyl]cyclopropyl}-2-methoxy-benzamido)-6-(trifluoromethyl)-1-benzothiophene-2-carboxamide]
150	COc1ccc(N2CCCC(C(=O)O)C2)cc1C(=O)Nc1c(C(=O)Nc2ccc(F)c(C(F)(F)F)c2)sc2cc(C(F)(F)F)ccc12 (single isomer, unassigned) [Example 5, 1-(3-((2-((4-fluoro-3-(trifluoromethyl)phenyl)carbamoyl)-6-(trifluoromethyl)benzo[b]thiophen-3-yl)carbamoyl)-4-methoxyphenyl) piperidine-3-carboxylic acid]
876	COc1ccc(C2CCNC2)cc1C(=O)Nc1c(C(=O)Nc2ccc(F)c(C(F)(F)F)c2)sc2cc(C(F)(F)F)ccc12 (single isomer, unassigned) [Example 133, N-(4-fluoro-3-(trifluoromethyl)phenyl)-3-(2-methoxy-5-(pyrrolidin-3-yl)benzamido)-6-(trifluoromethyl) benzo[b] thiophene-2-carboxamide]
1930	COc1ccc(N2CCCC(NCC(N)=O)C2)cc1C(=O)Nc1c(C(=O)Nc2ccc(F)c(C(F)(F)F)c2)sc2cc(C(F)(F)F)ccc12 (stereo in doubt) [Example 210, (S)-3-(5-(3-((2-amino-2-oxoethyl)amino)piperidin-1-yl)-2-methoxy-benzamido)-N-(4-fluoro-3-(trifluoromethyl)phenyl)-6-(trifluoromethyl) benzo[b] thiophene-2-carboxamide]
